# Measured values reported in PubChem BioAssay AID588668 (The Scripps Research Institute Molecular Screening Center, 2011).
# Molecular target: Mitogen-activated protein kinase 1 (Homo sapiens) (UniProt P28482)
# Assay: phospho-ERK1/2 level reduction in colorectal cells, late-stage follow-up, counter-screen for KLF5 inhibitor project, SW620 cells, chemiluminescent western blot, powder samples (AID 588668)
# Conditions: phospho-ERK1/2 western blot, 24 h, at 10 µM
# Sequence of Mitogen-activated protein kinase 1 (Homo sapiens) (P28482 whole entry, looked up): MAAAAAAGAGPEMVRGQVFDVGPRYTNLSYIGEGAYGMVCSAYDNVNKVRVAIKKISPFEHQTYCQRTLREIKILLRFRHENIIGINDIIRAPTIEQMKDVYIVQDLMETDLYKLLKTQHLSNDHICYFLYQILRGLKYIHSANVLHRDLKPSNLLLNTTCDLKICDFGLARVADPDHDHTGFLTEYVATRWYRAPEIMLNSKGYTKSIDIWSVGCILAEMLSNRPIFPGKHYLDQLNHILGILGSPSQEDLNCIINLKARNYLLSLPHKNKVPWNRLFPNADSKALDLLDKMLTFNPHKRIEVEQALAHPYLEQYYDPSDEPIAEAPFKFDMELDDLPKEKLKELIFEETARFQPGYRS
row,"phospho-ERK1/2 inhibition (% vs DMSO), hits give high values",SMILES
1,48.2%,CN(C(=O)CNC(=O)/C=C/c1cccc(Cl)c1)C1CCS(=O)(=O)CC1
2,31.3%,CN(C(=O)CNC(=O)/C=C/c1cccc(Cl)c1)C1CCS(=O)(=O)C1 (stereo not drawn)
3,35.6%,CN(C(=O)COC(=O)/C=C/c1cccc([N+](=O)[O-])c1)C1CCS(=O)(=O)C1 (stereo not drawn)
